From article PMC3723855, “R31C GNRH1 Mutation and Congenital Hypogonadotropic Hypogonadism” (PLoS ONE, 2013)
Entries after “also recorded” stand apart in the source; their conditions may differ. Like-named read-outs stand apart in the source and are kept apart here.

Assays:
[1] = test system: GnRH-R; assay: Binding after pre-incubation and washout (covalent binding test), transfected COS-7 cells; parameters: species or system human; conditions: for covalent binding to receptor / subsequent binding of radiolabeled GnRH analog after pre-incubation and washing: WT GnRH 10^−8 M or R31C GnRH 10^−5 M, 2 h, 4°C, washed, 1 h, two experiments in triplicate
Protocol: Figure 2 Binding of WT and R31C GnRH to the GnRH receptor (GnRH-R). […] Data are the means of two experiments performed in triplicate.
We hypothesized that the cysteine in position 8 of the R31C GnRH might form disulfide bridges with cysteine residues in the receptor that are not in disulfide bridges. There are three such cysteines: cysteine 218, cysteine 279 and cysteine 317. In order to examine this possibility the effects of R31C GnRH pre-incubation on subsequent binding of a radio-labelled GnRH analog was examined. […] After treatment, the cells were extensively washed to remove all non-covalently bound peptide.

[2] = Peptide stability in solution, LC-MS/MS
Protocol: LC-MS/MS was performed with Quattro-LCZ triple quadrupole mass spectrometer equipped with the orthogonal electrospray source (Micromass, Manchester, UK) to analyze peptides stability in solution. Peptides solutions (water and cell culture medium) were incubated 24-h at room temperature for these stability studies.
Peptides were measured in aqueous solution at pH 7 and starved overnight at 37°C.

[3] = test system: LH (LbetaT2 cells); assay: LH secretion from LbetaT2 cells; type: cell-based, murine; conditions: for LH secretion versus WT GnRH: 10 nM R31C; for LH secretion over baseline: 10 nM, four experiments in duplicates, p<0.001 for WT, p = 0.042 for R31C
Protocol: (§1) Figure 7 Effects of treatments on lhb transcription and LH secretion. (A) LbetaT2 cells were starved overnight in serum-free DMEM and treated either by 10 nM WT, R31C, 10 nM WT +10 nM R31C peptides or vehicle. After five hours treatment cells were lysed for RNA extraction (Trizol®). Mouse lhb levels were analyzed by quantitative real time RT-qPCR. Values are expressed as individual ratios on 18S and represented as fold induction on vehicle as means ± SEM, **p<0.01. This experience was conducted n = 7 times in duplicates. (B) LH concentrations from LbetaT2 cells culture media. Cells were starved overnight in serum-free DMEM and incubated with 10 nM WT, 10 nM R31C, 10 nM WT +10 nM R31C, or vehicle for 5 hours. LH levels were measured by a combined rat/mouse RIA. Values are expressed as individual values and as means ± SEM, *p<0.05, ***p<0.001. The experiment was conducted four times and each sample was assayed in duplicates.
LbetaT2 cells were starved overnight in serum-free DMEM. The test day cells were exposed to 10 nM WT, R31C, the combination of 10 nM of each peptide or vehicle during five hours. Cell culture supernatants were collected and rapidly stored at −80°C. In cell culture media, LH concentration was measured using a previously described […] method with reagents supplied by Dr. Parlow (National Hormone and Peptide Program, Harbor-UCLA Medical Center, Torrance, CA). The minimum detectable LH concentration was 0.2 ng/ml, and the interassay coefficient of variation was less than 10%.

[4] = test system: human GnRH receptor; assay: SRE-coupled luciferase assay in HEK293T cells co-transfected with human GnRH receptor; type: cell-based; conditions: for EC50: human GnRH receptor
Protocol: Figure 3 SRE-coupled luciferase assay. (A) HEK293T cells were exposed to graded concentrations of wild type (WT) GnRH, R31C and equimolar concentrations of WT + R31C during five hours. Luciferase activity arbitrary units by luminometry (a.u.) have been shown as ratio on beta-galactosidase activity by optical density used as transfection efficiency internal control. This experience was conducted eight times. (B) Representation of individual values of EC-50 (calculated with Arcsin “P” root transformation) from n = 8 dose-response experiments.
luc2P/SRE/Hygro plasmid (Promega, Madison, WI) was used to test luciferase production in response to MAP kinase activation as a reporter gene system. HEK293T cells (1.2×10^4 cells/well) were seeded 72 h before testing in high-glucose Dulbecco's minimal essential medium (DMEM, Invitrogen, Cergy Pontoise, France) containing 2 mM glutamine, 100 IU/mL penicillin, […] streptomycin, and 10% heat-inactivated fetal calf serum at 37°C in 96-well plates. Twenty-four hours before testing, cells were co-transfected in serum free OptiMEM, using Lipofectamine 2000 (Invitrogen, Cergy Pontoise, France) with the plasmids for human GnRH receptor, luc2P/SRE/Hygro and pMIR-REPORT™ beta-galactosidase vector (Applied Biosystems, Foster City, CA). […] After 5 h-incubation cells were harvested and assayed for luciferase activities as previously described, using a luminometer (Victor, Perkin Elmer, Waltham, MA). To standardize for transfection efficiency, the relative light units were normalized by the galactosidase activity at optical density. EC-50 and Emax values were calculated using Graphpad Prism (GraphPad Software Inc).

[5] = test system: ERK1/2 (LbetaT2 cells); assay: ERK1/2 phosphorylation Western blot in LbetaT2 cells; type: cell-based, murine
Protocol: Figure 4 ERK1/2 phosphorylation by Western blot. (A) LbetaT2 cells were starved overnight in serum-free DMEM and then treated by 10 nM WT, 10 nM R31C, 10 nM WT +10 nM R31C peptides or vehicle for 0, 5, 10 and 30 minutes. Representative of four experiments. […] Lysates were analyzed by Western Blotting using phospho-ERK1/2 antibodies (Cell Signaling®, open arrow) and mouse monoclonal anti alpha-tubulin (Sigma Aldrich®, St. Louis, MO, close arrow). Similar results on ERK intensity and kinetics were obtained using transiently transfected HEK293T cells.
LbetaT2 cells were starved 18 h in serum-free DMEM before treatments, then exposed to 10 nM of WT, 10 nM of R31C, the combination of 10 nM of each peptide or vehicle. Cells were harvested at 0, 5, 10, 15 and 30 minutes after treatment. Western blotting analyses were performed as previously described.

[6] = test system: lhb (LbetaT2 cells); assay: lhb transcription (RT-qPCR) in LbetaT2 cells; type: cell-based, mouse; conditions: for lhb transcription versus WT GnRH: 10 nM R31C; for lhb transcript levels: 10 nM, n = 7 in duplicates, p<0.01 for WT, not significant for R31C
Protocol: as §1, with “(A) LbetaT2 cells were starved overnight in serum-free DMEM and treated either by 10 nM WT, R31C, 10 nM WT +10 nM R31C peptides or vehicle.” left out
LbetaT2 cells were grown at 10^6/well in 6-well plates and starved in serum-free DMEM 18 h before tests. […]
Lhb (murine LH beta subunit) transcript was quantified by real-time RT-PCR, using an ABI Step One Sequence Detector (Applied Biosystem, Foster City, CA) as previously described.

[7] = aqueous solution at pH 7, overnight at 37°C, mass spectrometry-coupled electrospray (Fig. S1)
[8] = 5 hours, listed as R31C peptide
[9] = R31C 10^−10 M to 10^−6 M in combination with WT GnRH at 10^−9 M

CC(C)C[C@H](NC(=O)CNC(=O)[C@H](Cc1ccc(O)cc1)NC(=O)[C@H](CO)NC(=O)[C@H](Cc1c[nH]c2ccccc12)NC(=O)[C@H](Cc1c[nH]cn1)NC(=O)[C@@H]1CCC(=O)N1)C(=O)N[C@@H](CS)C(=O)N1CCC[C@H]1C(=O)NCC(N)=O [R31C GnRH]
receptors occupied in pre-incubation ([1]; R31C GnRH (10^−5 M in method and Fig. 2B), determined from the competition binding study): 50% | covalent binding to receptor / subsequent binding of radiolabeled GnRH analog after pre-incubation and washing [1]: does not form covalent disulfide bonds with the receptor | dimerization ([2]; 24 h, room temperature, water and culture medium, LC-MS/MS): No dimerization | formation of R31C dimers [2, 7]: absent | formation of smaller fragments [2, 7]: negligible | stability over 24-hours ([2]; culture medium, room temperature, 24 h, LC-MS/MS): stable | stability over 24-hours ([2]; water, room temperature, 24 h, LC-MS/MS): stable | LH secretion versus WT GnRH ([3]; 5 hours): very low activity | LH secretion versus WT GnRH [3, 8]: weaker responses | influence of R31C GnRH on stimulation of LH secretion by WT GnRH ([3]; 10 nM WT + 10 nM R31C, 5 hours): unable to influence | LH secretion over baseline ([3]; 5 hours): significantly stimulated LH secretion | impact of added R31C GnRH on LH secretion with WT GnRH [3, 9]: failed to have any impact | maximal stimulation / agonism, SRE-luciferase ([4]; HEK293T, 5 h, R31C compared with WT): full agonist; also recorded: able to elicit the same maximal stimulation | EC50 ([4]; HEK293T, 5 h, n = 8 dose-response experiments, Arcsin "P" root transformation, spread not defined, p<0.0001, read-out: EC-50, SRE-luciferase (Fig. 3B)): 313 ± 130 nM | impact of added R31C GnRH on SRE-luciferase with WT GnRH [4, 9]: failed to have any impact | SRE-luciferase activity / potency ([4]; R31C GnRH versus WT): very low activity | reduction of R31C agonist versus WT, SRE-luciferase ([4]; R31C versus WT, dose-response curves): ~100 fold | ERK1/2 phosphorylation versus WT GnRH ([5]; 10 nM, LbetaT2 cells, four experiments): very low activity | ERK1/2 phosphorylation versus WT GnRH ([5]; 10 nM, LbetaT2 cells, four experiments, listed as R31C peptide): weaker responses | effect of increasing R31C dose on ERK1/2 phosphorylation by WT GnRH ([5]; R31C from 10 nM to 300 nM with 10 nM WT GnRH, 5 minutes exposure): did not reduce ERK1/2 phosphorylation | lhb transcription versus WT GnRH ([6]; 5 hours): very low activity | lhb transcription versus WT GnRH [6, 8]: weaker responses | influence of R31C GnRH on stimulation of lhb transcription by WT GnRH ([6]; 10 nM WT + 10 nM R31C, 5 hours): unable to influence the stimulation of lhb transcription | lhb transcript levels ([6]; 5 hours): did not significantly increase these levels over baseline | impact of added R31C GnRH on lhb transcription with WT GnRH [6, 9]: failed to have any impact

CC(C)C[C@H](NC(=O)CNC(=O)[C@H](Cc1ccc(O)cc1)NC(=O)[C@H](CO)NC(=O)[C@H](Cc1c[nH]c2ccccc12)NC(=O)[C@H](Cc1c[nH]cn1)NC(=O)[C@@H]1CCC(=O)N1)C(=O)N[C@@H](CCCNC(=N)N)C(=O)N1CCC[C@H]1C(=O)NCC(N)=O [WT GnRH, reference compound]
covalent binding to receptor / subsequent binding of radiolabeled GnRH analog after pre-incubation and washing [1]: can be fully removed from the receptor | receptors occupied in pre-incubation ([1]; WT GnRH at 10^−8 M): 50% | formation of smaller fragments [2, 7]: absent | LH secretion over baseline ([3]; 5 hours): strongly stimulated LH secretion over baseline | EC50 ([4]; HEK293T, 5 h, p<0.0001 WT vs R31C, read-out: EC-50, SRE-luciferase): 4 nM | time of maximal ERK1/2 phosphorylation ([5]; 10 nM, LbetaT2 cells, 0-30 minutes, four experiments): 5 min | lhb transcript levels ([6]; 5 hours): significantly increased lhb transcript levels
